Laboratory results: article PMC4076632, “VAV3 mediates resistance to breast cancer endocrine therapy” (Breast Cancer Research : BCR, 2014)

Biological target: T1, estrogen receptor α (ERα) (Homo sapiens, UniProt P03372)
T1 construct: gene ESR1
T1 sequence (P03372 1-595): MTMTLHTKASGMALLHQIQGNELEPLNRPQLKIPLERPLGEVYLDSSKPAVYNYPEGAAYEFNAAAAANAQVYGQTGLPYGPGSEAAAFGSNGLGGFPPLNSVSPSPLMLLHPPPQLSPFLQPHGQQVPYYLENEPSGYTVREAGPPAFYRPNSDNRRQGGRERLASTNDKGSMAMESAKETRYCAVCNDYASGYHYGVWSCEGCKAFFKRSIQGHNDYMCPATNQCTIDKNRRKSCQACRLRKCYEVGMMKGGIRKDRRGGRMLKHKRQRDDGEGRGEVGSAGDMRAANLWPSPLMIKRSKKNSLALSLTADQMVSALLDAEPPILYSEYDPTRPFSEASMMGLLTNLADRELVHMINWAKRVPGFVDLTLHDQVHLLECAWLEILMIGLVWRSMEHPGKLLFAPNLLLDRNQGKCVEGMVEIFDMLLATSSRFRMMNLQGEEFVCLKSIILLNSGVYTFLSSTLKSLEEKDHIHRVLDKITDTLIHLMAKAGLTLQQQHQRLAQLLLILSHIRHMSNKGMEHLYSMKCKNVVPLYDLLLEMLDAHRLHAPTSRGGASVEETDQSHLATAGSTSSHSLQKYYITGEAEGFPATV
Assay: ERα agonist fluoligand competition assay (Cerep) with fluorescein-labeled estradiol
Format: binding

Question: `OCc1ccc(-c2nn(Cc3ccccc3)c3ccccc23)o1` [YC-1, 3-(5′-hydroxymethyl-2′-furyl)-1-benzylindazole] was tested. Which Ki did it give?
Answer: 26 µM
